Measured values taken from patent US20030039658A1, “MCEF, a novel transcription factor” (priority 2000, published 2003).

Assay: Geldanamycin cytotoxicity
Assay type: cell-based

COC1=C2C[C@@H](C)C[C@H](OC)[C@H](O)[C@@H](C)/C=C(\C)[C@H](OC(N)=O)[C@@H](OC)/C=C\C=C(/C)C(=O)NC(=CC1=O)C2=O [Geldanamycin]
cytotoxicity: primarily the result of GA cytotoxicity
